Data set [1] addresses Adenosine kinase (Mycobacterium tuberculosis (strain CDC 1551 / Oshkosh), UniProt P9WID4). Kind of data set: Inhibition of Mycobacterium tuberculosis ADK using [3H]-adenosine by scintillation counting method.
Data set [2] in a line: Cytotoxicity against human MRC5 cells after 72 hrs by MTT assay. It is filed as cell-based.
For data set [3], the target named is Adenosine kinase (Mycobacterium tuberculosis (strain CDC 1551 / Oshkosh)) (UniProt P9WID4). Kind of data set: Activity of Mycobacterium tuberculosis ADK assessed as compound conversion to 5'-phosphate form incubated at 37 degC for 20 mins by HPLC method.
Data set [4] concerns the target T1, Adenosine kinase (Homo sapiens, UniProt P55263). Description: Activity of human ADK assessed as compound conversion to 5'-phosphate form incubated at 37 degC for 20 mins by HPLC method. Details: concentration or dose not given beside the values.
Target sequence in this assay (P55263 2-362 limits assumed): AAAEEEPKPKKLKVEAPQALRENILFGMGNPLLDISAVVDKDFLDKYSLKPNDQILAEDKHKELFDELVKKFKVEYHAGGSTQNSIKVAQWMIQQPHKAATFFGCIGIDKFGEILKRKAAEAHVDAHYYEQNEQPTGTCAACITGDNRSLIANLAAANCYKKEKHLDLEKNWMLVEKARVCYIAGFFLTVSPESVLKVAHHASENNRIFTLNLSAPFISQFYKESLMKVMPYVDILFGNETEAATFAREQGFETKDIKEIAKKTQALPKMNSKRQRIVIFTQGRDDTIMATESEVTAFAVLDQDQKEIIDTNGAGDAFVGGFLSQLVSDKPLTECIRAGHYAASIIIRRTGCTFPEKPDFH
A short description of data set [5]: Cytotoxicity against human BJ cells after 72 hrs by MTT assay. The class given is cell-based. In general terms: Tetrazolium assays rely on reduction of a dye to a coloured formazan, in cell work by metabolically active cells.
Data set [6] addresses T1, Adenosine kinase. Description: Inhibition of human ADK using [3H]-adenosine by scintillation counting method.
Target sequence in this assay (P55263 whole entry): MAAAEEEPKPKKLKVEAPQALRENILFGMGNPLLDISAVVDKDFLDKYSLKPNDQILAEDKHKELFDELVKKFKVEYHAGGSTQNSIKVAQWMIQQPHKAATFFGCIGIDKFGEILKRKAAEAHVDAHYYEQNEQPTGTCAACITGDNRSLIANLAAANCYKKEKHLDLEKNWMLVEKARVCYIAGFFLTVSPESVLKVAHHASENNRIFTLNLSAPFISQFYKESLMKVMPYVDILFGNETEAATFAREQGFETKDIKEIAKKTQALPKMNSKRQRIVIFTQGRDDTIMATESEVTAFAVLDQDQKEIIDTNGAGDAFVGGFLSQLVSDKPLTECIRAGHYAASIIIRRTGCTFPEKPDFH

Activity calls are given as the source filed them. The rule behind the calls is not given here. A value given as a limit tells only on which side of the number the result lay.

What is called IC50 is the concentration that inhibits the measured activity by half. One may read the CC50 as the concentration that lowers cell viability or growth by half.

Sequence of Adenosine kinase (Mycobacterium tuberculosis (strain CDC 1551 / Oshkosh), UniProt P9WID4) (P9WID4 whole entry): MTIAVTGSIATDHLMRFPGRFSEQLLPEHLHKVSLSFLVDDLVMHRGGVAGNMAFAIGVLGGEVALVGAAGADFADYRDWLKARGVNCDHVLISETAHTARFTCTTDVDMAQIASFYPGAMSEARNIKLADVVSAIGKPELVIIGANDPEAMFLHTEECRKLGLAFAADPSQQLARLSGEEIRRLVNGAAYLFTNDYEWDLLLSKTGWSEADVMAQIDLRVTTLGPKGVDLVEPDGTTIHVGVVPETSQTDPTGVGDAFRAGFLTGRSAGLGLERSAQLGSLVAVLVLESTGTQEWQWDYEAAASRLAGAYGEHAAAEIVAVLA
Sequence of Adenosine kinase (Mycobacterium tuberculosis (strain CDC 1551 / Oshkosh)) (P9WID4 2-324 limits assumed): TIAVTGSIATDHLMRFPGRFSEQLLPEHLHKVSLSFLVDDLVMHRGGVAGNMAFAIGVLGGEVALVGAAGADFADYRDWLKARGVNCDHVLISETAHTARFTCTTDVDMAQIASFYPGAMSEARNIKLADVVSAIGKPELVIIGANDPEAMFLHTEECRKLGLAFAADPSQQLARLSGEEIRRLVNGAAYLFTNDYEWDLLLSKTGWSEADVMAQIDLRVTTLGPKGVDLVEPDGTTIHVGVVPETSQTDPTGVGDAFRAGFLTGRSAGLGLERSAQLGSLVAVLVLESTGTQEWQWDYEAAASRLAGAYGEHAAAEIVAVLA

Regarding `OC[C@H]1O[C@@H](n2ccc3c(-c4cn[nH]c4)ncnc32)[C@H](O)[C@@H]1O`, the IC50 on Adenosine kinase [1] is 670 nM; against Adenosine kinase [6], over 20000 nM. The half-maximal cytotoxic concentration (CC50) at 72 h in data set [2] is over 50000 nM; in data set [5], 42100 nM. Further, the outcome in data set [3] was inactive. Besides, the Activity on Adenosine kinase [4] worked out at 7%.
Turning to `OC[C@H]1O[C@@H](n2cc(F)c3c(-c4cc[nH]c4)ncnc32)[C@H](O)[C@@H]1O`, the values for the IC50 at Adenosine kinase [1] and on Adenosine kinase [6] were 400 nM and over 10000 nM, respectively. In addition, the CC50 at 72 h worked out at 48900 nM in data set [2] and 2020 nM in data set [5]. Also, the result in data set [3] was inactive. The Activity at Adenosine kinase [4] was 97%.
`OC[C@H]1O[C@@H](n2cc(F)c3c(-c4cccs4)ncnc32)[C@H](O)[C@@H]1O`: the IC50 is 35 nM against Adenosine kinase [1] and 1100 nM on Adenosine kinase [6]. The CC50 at 72 h was found to be 47200 nM in data set [2] and 170 nM in data set [5]. For the same compound, the outcome in data set [3] was inactive. Besides, the Activity on Adenosine kinase [4] was 52%.
As to `OC[C@H]1O[C@@H](n2cc(Cl)c3c(-c4ccco4)ncnc32)[C@H](O)[C@@H]1O`, the IC50 on Adenosine kinase [1] came to 110 nM; on Adenosine kinase [6] it was 290 nM. In addition, the CC50 at 72 h is over 50000 nM in data set [2] and 37200 nM in data set [5]. Also, in data set [3], the result was inactive. The Activity at Adenosine kinase [4] turned out to be 77%.
For the compound `OC[C@H]1O[C@@H](n2ccc3c(-c4ccc[nH]4)ncnc32)[C@H](O)[C@@H]1O`, the concentration for half-maximal inhibition (IC50) was 73 nM against Adenosine kinase [1] and over 10000 nM against Adenosine kinase [6]. Also, the CC50 at 72 h in data set [2] and in data set [5] was over 50000 nM throughout. For the same compound, the outcome in data set [3] was inactive. Moreover, the Activity at Adenosine kinase [4] amounted to 40%.
As for `OC[C@H]1O[C@@H](n2ccc3c(-c4cc[nH]c4)ncnc32)[C@H](O)[C@@H]1O`, the 50% inhibitory concentration (IC50) on Adenosine kinase [1] is 300 nM; on Adenosine kinase [6] it was over 10000 nM. Moreover, the cytotoxic concentration (CC50) at 72 h in data set [2] was 40200 nM; in data set [5], 1870 nM. In data set [3], the result was inactive. Also, on Adenosine kinase [4], the Activity came out at 70%.
As for `OC[C@H]1O[C@@H](n2ccc3c(-c4ccco4)ncnc32)[C@H](O)[C@@H]1O`, the IC50 was 320 nM against Adenosine kinase [1] and 1300 nM against Adenosine kinase [6]. Further, the CC50 at 72 h in data set [2] turned out to be 11800 nM; in data set [5] it was 230 nM. Also, the result in data set [3] was inactive. The Activity at Adenosine kinase [4] was 56%.
For `OC[C@H]1O[C@@H](n2ccc3c(-c4ccc(F)cc4)ncnc32)[C@H](O)[C@@H]1O`, the IC50 against Adenosine kinase [1] is 80 nM; on Adenosine kinase [6], over 10000 nM. The CC50 at 72 h in data set [2] and in data set [5] was over 50000 nM throughout. Moreover, in data set [3], the outcome was inactive. Besides, the Activity at Adenosine kinase [4] was determined as 17%.
Take `OC[C@H]1O[C@@H](n2ccc3c(-c4ccoc4)ncnc32)[C@H](O)[C@@H]1O`: the IC50 against Adenosine kinase [1] was 320 nM; on Adenosine kinase [6], over 10000 nM. Further, the figures for the cytotoxic concentration (CC50) at 72 h in data set [2] and in data set [5] were 45400 nM and 1200 nM, respectively. For the same compound, in data set [3], the outcome was inactive. In addition, the Activity on Adenosine kinase [4] was found to be 32%.
Consider `OC[C@H]1O[C@@H](n2ccc3c(-c4ccc[se]4)ncnc32)[C@H](O)[C@@H]1O`, for which the IC50 is 30 nM on Adenosine kinase [1] and over 10000 nM on Adenosine kinase [6]. Further, the figures for the CC50 at 72 h in data set [2] and in data set [5] were over 50000 nM and 1520 nM, respectively. Further, in data set [3], the result was inactive. Besides, on Adenosine kinase [4], the Activity was 43%.
With `OC[C@H]1O[C@@H](n2cc(F)c3c(-c4ccsc4)ncnc32)[C@H](O)[C@@H]1O`, the IC50 on Adenosine kinase [1] was 63 nM; at Adenosine kinase [6], over 10000 nM. Moreover, the CC50 at 72 h in data set [2] came to 50000 nM; in data set [5], 620 nM. Besides, the result in data set [3] was inactive. For the same compound, at Adenosine kinase [4], the Activity turned out to be 51%.
Turning to `OC[C@H]1O[C@@H](n2cc(F)c3c(-c4ccccc4)ncnc32)[C@H](O)[C@@H]1O`, the IC50 at Adenosine kinase [1] is 200 nM; at Adenosine kinase [6], over 10000 nM. The CC50 at 72 h in data set [2] and in data set [5] was over 50000 nM each time. In data set [3], the outcome was inactive. Besides, the Activity at Adenosine kinase [4] was determined as 17%.
For the compound `OC[C@H]1O[C@@H](n2cc(Cl)c3c(-c4ccoc4)ncnc32)[C@H](O)[C@@H]1O`, the results for the IC50 against Adenosine kinase [1] and against Adenosine kinase [6] were 300 nM and 3400 nM, respectively. Also, the CC50 at 72 h in data set [2] was over 50000 nM; in data set [5], 21600 nM. The outcome in data set [3] was inactive. Also, the Activity on Adenosine kinase [4] worked out at 100%.
For the compound `OC[C@H]1O[C@@H](n2cc(F)c3c(-c4nccs4)ncnc32)[C@H](O)[C@@H]1O`, the IC50 was 28 nM against Adenosine kinase [1] and over 20000 nM against Adenosine kinase [6]. Moreover, the results for the CC50 at 72 h in data set [2] and in data set [5] were over 50000 nM and 630 nM, respectively. For the same compound, the outcome in data set [3] was inactive. For the same compound, the Activity on Adenosine kinase [4] amounted to 75%.
For the compound `OCc1ncnc2c1ccn2[C@@H]1O[C@H](CO)[C@@H](O)[C@H]1O`, the IC50 was over 5000 nM against Adenosine kinase [1] and over 10000 nM on Adenosine kinase [6]. Moreover, the CC50 at 72 h in data set [2] came out at 280 nM; in data set [5] it was 340 nM. The outcome in data set [3] was inactive. In addition, at Adenosine kinase [4], the Activity was 26%.
As for `OC[C@H]1O[C@@H](n2cc(F)c3c(-c4c[nH]cn4)ncnc32)[C@H](O)[C@@H]1O`, the IC50 is 1000 nM at Adenosine kinase [1] and over 20000 nM against Adenosine kinase [6]. In addition, the CC50 at 72 h in data set [2] and in data set [5] was over 50000 nM each time. Besides, the outcome in data set [3] was inactive. Besides, the Activity on Adenosine kinase [4] came to 11%.

(Values after ChEMBL document CHEMBL3132858, “6-Alkyl-, 6-aryl- or 6-hetaryl-7-deazapurine ribonucleosides as inhibitors of human or MTB adenosine kinase and potential antimycobacterial agents” (Medchemcomm, 2013).)
